In US4220755A, “Fortimicin B derivatives and process for production thereof” (Abbott Laboratories, priority 1976, dated 1980):
≈ marks a conversion by molar mass, not a printed value.

Columns and labels:
[1] = Stability in alkaline aqueous conditions; format: physicochemical
Experimental: The stability of 4-N-acylfortimicin B derivatives in aqueous alkaline conditions is poor. […] Therefore, purification of these compounds under basic conditions (for example, column chromatography with Amberlite CG-50, eluting with aqueous ammonia) is not practical.
In contrast with the instability of 4-N-acylfortimicin B derivatives, 4-N-alkylfortimicin B derivatives are so stable that no decomposition occurs even in aqueous barium hydroxide solution at reflux temperature for 18 hours. Therefore, in the case of 4-N-alkylfortimicin B, any substituents can be introduced at 4-N-position of fortimicin B, even though such substituents can not be introduced as the acyl type to such position due to the aforementioned instability.

Escherichia coli NIHTC-2 = test: MIC, agar dilution method, pH 7.2; format: cell-based; details: NIHTC2; pH 7.2; Escherichia coli NIHTC-2; read-out: Minimum inhibition concentration (MIC)
Experimental: (§1) Measurement was carried out according to the agar dilution method, using a medium of pH 8.0, or the Japanese Antibiotic Medicament Standard, using a medium of pH 7.2 Units are in mcg/ml.

[2] = system: Eschericihia coli GN2411-5; test: MIC, agar dilution method, pH 7.2; format: cell-based; details: Escherichia coli, GN2411, pH 7.2, read-out: Minimum inhibition concentration (MIC)
Experimental: as §1

[3] = system: Klebsiella pneumoniae KY4274; test: MIC, agar dilution method, pH 7.2; format: cell-based; details: pH 7.2; Klebsiella pneumoniae KY4274; read-out: Minimum inhibition concentration (MIC)
Experimental: as §1

Proteus vulgaris JJ = test: MIC, agar dilution method, pH 7.2; format: cell-based; details: pH 7.2; Proteus vulgaris JJ; read-out: Minimum inhibition concentration (MIC)
Experimental: as §1

[4] = system: Pseudomonas aeruginosa BMH# 1; test: MIC, agar dilution method, pH 7.2; format: cell-based; details: pH 7.2; Pseudomonas aeruginosa BMH# 1; read-out: Minimum inhibition concentration (MIC)
Experimental: as §1

[5] = system: Pseudomonas aeruginosa UCLA 4184; test: MIC, agar dilution method, pH 7.2; format: cell-based; details: UCLA4184; pH 7.2; Pseudomonas aeruginosa UCLA 4184; read-out: Minimum inhibition concentration (MIC)
Experimental: as §1

[6] = system: Salmonella enteritidis G-14; test: MIC, agar dilution method, pH 7.2; format: cell-based; details: Salmonella enterica; pH 7.2; Salmonella enteritidis G-14; read-out: Minimum inhibition concentration (MIC)
Experimental: as §1

Shigella sonnei ATCC9290 = test: MIC, agar dilution method, pH 7.2; format: cell-based; details: read-out: Minimum inhibition concentration (MIC)
Experimental: as §1

[7] = system: Staphylococcus aureus 209-P; test: MIC, agar dilution method, pH 7.2; format: cell-based; details: pH 7.2; Staphylococcus aureus 209-P; read-out: Minimum inhibition concentration (MIC)
Experimental: as §1

[8] = system: Staphylococcus aureus Smith (A); test: MIC, agar dilution method, pH 7.2; format: cell-based; details: pH 7.2; Staphylococcus aureus Smith (A); read-out: Minimum inhibition concentration (MIC)
Experimental: as §1

[9] = system: Staphylococcus a ureus 226; test: MIC, agar dilution method, pH 7.2; format: cell-based, Staphylococcus aureus; details: pH 7.2; Staphylococcus aureus 226; read-out: Minimum inhibition concentration (MIC)
Experimental: as §1

Eschericihia coli 3100 = test: MIC, agar dilution method, pH 7.2; format: cell-based, Escherichia coli; details: Escherichia coli; pH 7.2; E. coli 3100; read-out: Minimum inhibition concentration (MIC)
Experimental: as §1

[10] = system: Escherichia coli 57R/W677; test: MIC, agar dilution method, pH 7.2; format: cell-based; details: 57R/W677, pH 7.2, read-out: Minimum inhibition concentration (MIC)
Experimental: as §1
(§2) **1: gentamicin, producing adenylsynthetase.

Escherichia coli 76-2 = test: MIC, agar dilution method, pH 7.2; format: cell-based; details: Escherichia coli, 762; pH 7.2; E. coli 76-2; 1**: gentamicin, producing adenylsynthetase; read-out: Minimum inhibition concentration (MIC)
Experimental: as §1, §2

[11] = system: Escherichia coli R12 Z-338; test: MIC, agar dilution method, pH 7.2; format: cell-based; details: R12Z338, pH 7.2, read-out: Minimum inhibition concentration (MIC)
Experimental: as §1, §2

[12] = system: Klebsiella pneumoniae 3020 Y-60; test: MIC, agar dilution method, pH 7.2; format: cell-based; details: 3020Y60; pH 7.2; Klebsiella pneumoniae 3020 Y-60; 1**: gentamicin, producing adenylsynthetase; read-out: Minimum inhibition concentration (MIC)
Experimental: as §1, §2

[13] = system: Escherichia coli R18 KY8321; test: MIC, agar dilution method, pH 7.2; format: cell-based; details: R18KY8321, E. coli R18 KY8321, 2**: gentamicin, producing adenylsynthetase and neomycin phosphotransferase type II, read-out: Minimum inhibition concentration (MIC)
Experimental: as §1
2: gentamicin, producing adenylsynthetase and neomycin phosphotransferase

[14] = system: Escherichia coli R17 Z343; test: MIC, agar dilution method, pH 7.2; format: cell-based; details: R17Z343, pH 7.2, E. coli R17 Z343, 3**: kanamycin, producing acetyltransferase, read-out: Minimum inhibition concentration (MIC)
Experimental: as §1
(§3) 3: kanamycin, producing acetyltransferase.

[15] = system: Pseudomonas aeruginosa R9 KY8516; test: MIC, agar dilution method, pH 7.2; format: cell-based; details: R9KY8516, pH 7.2, P. aeruginosa R9 KY8516, 3**: kanamycin, producing acetyltransferase, read-out: Minimum inhibition concentration (MIC)
Experimental: as §1, §3

Serratia marcescens 1065 = test: MIC, agar dilution method, pH 7.2; format: cell-based; details: Serratia marcescens, 1065, pH 7.2, read-out: Minimum inhibition concentration (MIC)
Experimental: as §1, §3

[16] = system: Escherichia coli R19 KY8348; test: MIC, agar dilution method, pH 7.2; format: cell-based; details: R19KY8348, pH 7.2, E. coli R19 KY8348, 4**: gentamicin, producing acetyltransferase type I, read-out: Minimum inhibition concentration (MIC)
Experimental: as §1
(§4) 4: gentamicin, producing acetyltransferase type I.

[17] = system: Pseudomonas aeruginosa R4 KY8511; test: MIC, agar dilution method, pH 7.2; format: cell-based; details: R4KY8511, pH 7.2, P. aeruginosa R4 KY8511, 4**: gentamicin, producing acetyltransferase type I, read-out: Minimum inhibition concentration (MIC)
Experimental: as §1, §4

[18] = system: Escherichia coli R20 KY8349; test: MIC, agar dilution method, pH 7.2; format: cell-based; details: R20KY8349, pH 7.2, read-out: Minimum inhibition concentration (MIC)
Experimental: as §1
5: neomycin, producing phosphotransferase type I.

[19] = system: Pseudomonas aeruginosa R5 KY8512; test: MIC, agar dilution method, pH 7.2; format: cell-based; details: R5KY8512, pH 7.2, P. aeruginosa R5 KY8512, 6**: neomycin, producing phosphotransferase type I and type II, read-out: Minimum inhibition concentration (MIC)
Experimental: as §1
6: neomycin, producing phosphotransferase type I and type II.

Providencia sp 164 = test: MIC, agar dilution method, pH 7.2; format: cell-based; details: pH 7.2; Providencia sp 164; 7**: gentamicin, producing acetyltransferase type II; read-out: Minimum inhibition concentration (MIC)
Experimental: as §1
7: gentamicin, producing acetyltransferase type II.

[20] = system: Staphylococcus aureus KY4279 ATCC6538P; test: MIC, agar dilution method, pH 8.0; format: cell-based; details: pH 8.0, Staphylococcus aureus KY4279, read-out: Minimum inhibition concentration (MIC), SA
Experimental: as §1
S.A.: Staphylococcus aureus KY4279 ATCC6538P

Bacillus subtilis KY4273 = test: MIC, agar dilution method, pH 8.0; format: cell-based; details: pH 8.0; Bacillus subtilis KY4273; read-out: Minimum inhibition concentration (MIC), BS
Experimental: as §1
B.S.: Bacillus subtilis KY4273

[21] = system: Eschericia coli KY4271 ATCC26; test: MIC, agar dilution method, pH 8.0; format: cell-based; details: Escherichia coli, ATCC26; pH 8.0; E. coli KY4271; read-out: Minimum inhibition concentration (MIC), EC
Experimental: as §1
E.C.: Eschericia coli KY4271 ATCC26

[22] = system: Proteus vulgaris KY4277 ATCC6897; test: MIC, agar dilution method, pH 8.0; format: cell-based; details: ATCC6897; pH 8.0; Proteus vulgaris KY4277; read-out: Minimum inhibition concentration (MIC), PV
Experimental: as §1

[23] = system: Shigella sonnei KY4281 ATCC9290; test: MIC, agar dilution method, pH 8.0; format: cell-based; details: ATCC9290; pH 8.0; Shigella sonnei KY4281; read-out: Minimum inhibition concentration (MIC), SS
Experimental: as §1

[24] = system: Salmonella typhosa KY4278 ATCC9992; test: MIC, agar dilution method, pH 8.0; format: cell-based; details: Salmonella enterica, pH 8, read-out: Minimum inhibition concentration (MIC), ST
Experimental: as §1
S.T.: Salmonella typhosa KY4278 ATCC9992

[25] = system: Klebsiella pneumoniae KY4275 ATCC10031; test: MIC, agar dilution method, pH 8.0; format: cell-based; details: ATCC10031; pH 8.0; Klebsiella pneumoniae KY4275; read-out: Minimum inhibition concentration (MIC), KP
Experimental: as §1
K.P.: Klebsiella pneumoniae KY4275 ATCC10031.

Question: For `CO[C@H]1[C@@H](O)[C@H](N)[C@@H](O[C@H]2O[C@H]([C@H](C)N)CC[C@H]2N)[C@H](O)[C@@H]1N(C)C(=O)CCCCN` [Compound 11, 4-N-(δ-amino-n-valeryl)fortimicin B], which “Stability in alkali condition (MIC medium)” value ([1]; pH 8.0) is on record?
Answer: The value was “unstable”.

Question: What about the “Stability in aqueous solution” value ([1]; pH 10, room temperature, within one hour) of the same molecule?
Answer: The value was “almost completely decomposed”.

Question: Which MIC (Escherichia coli NIHTC-2) does the source give for `CNCC[C@H](O)CN(C)[C@H]1[C@@H](O)[C@H](O[C@H]2O[C@H]([C@H](C)N)CC[C@H]2N)[C@@H](N)[C@H](O)[C@@H]1OC` [Compound 28, 4-N-[(S)-4-methylamino-2-hydroxybutyl]fortimicin B] here?
Answer: The MIC was 1.56 µg/mL (≈ 3.47 µM).

Question: And the MIC [2]?
Answer: Its MIC is 6.25 µg/mL (≈ 13.9 µM).

Question: What about the MIC [3] of the same molecule?
Answer: Its MIC is 3.12 µg/mL (≈ 6.94 µM).

Question: What about the MIC (Proteus vulgaris JJ) of the same molecule?
Answer: Its MIC is 3.12 µg/mL (≈ 6.94 µM).

Question: What about the MIC [4] of the same molecule?
Answer: Its MIC is 12.5 µg/mL (≈ 27.8 µM).

Question: And the MIC [5]?
Answer: Its MIC is 50 µg/mL (≈ 111 µM).

Question: And the MIC [6]?
Answer: The MIC was 3.12 µg/mL (≈ 6.94 µM).

Question: And the MIC (Shigella sonnei ATCC9290)?
Answer: Its MIC is 6.25 µg/mL (≈ 13.9 µM).

Question: What about the MIC [7] of the same molecule?
Answer: Its MIC is 0.78 µg/mL (≈ 1.73 µM).

Question: And the MIC [8]?
Answer: The MIC was 0.4 µg/mL (≈ 0.89 µM).

Question: And the MIC [9]?
Answer: Its MIC is 0.4 µg/mL (≈ 0.89 µM).

Question: And the MIC (Eschericihia coli 3100)?
Answer: The MIC was 12.5 µg/mL (≈ 27.8 µM).

Question: And the MIC [10]?
Answer: The MIC was 12.5 µg/mL (≈ 27.8 µM).

Question: And the MIC (Escherichia coli 76-2)?
Answer: The MIC was 3.12 µg/mL (≈ 6.94 µM).

Question: And the MIC [11]?
Answer: The MIC was 6.25 µg/mL (≈ 13.9 µM).

Question: And the MIC [12]?
Answer: The MIC was 12.5 µg/mL (≈ 27.8 µM).

Question: And the MIC [13]?
Answer: The MIC was 12.5 µg/mL (≈ 27.8 µM).

Question: And the MIC [14]?
Answer: Its MIC is 3.12 µg/mL (≈ 6.94 µM).

Question: What about the MIC [15] of the same molecule?
Answer: Its MIC is 50 µg/mL (≈ 111 µM).

Question: And the MIC (Serratia marcescens 1065)?
Answer: Its MIC is 6.25 µg/mL (≈ 13.9 µM).

Question: What about the MIC [16] of the same molecule?
Answer: The MIC was > 100 µg/mL.

Question: What about the MIC [17] of the same molecule?
Answer: Its MIC is > 100 µg/mL.

Question: What about the MIC [18] of the same molecule?
Answer: The MIC was 1.25 µg/mL (≈ 2.78 µM).

Question: What about the MIC [19] of the same molecule?
Answer: The MIC was 12.5 µg/mL (≈ 27.8 µM).

Question: What about the MIC (Providencia sp 164) of the same molecule?
Answer: Its MIC is 25 µg/mL (≈ 55.6 µM).

Question: And the MIC [20]?
Answer: Its MIC is 0.04 µg/mL (≈ 0.089 µM).

Question: What about the MIC (Bacillus subtilis KY4273) of the same molecule?
Answer: The MIC was 0.04 µg/mL (≈ 0.089 µM).

Question: And the MIC [21]?
Answer: Its MIC is 0.08 µg/mL (≈ 0.178 µM).

Question: What about the MIC [22] of the same molecule?
Answer: Its MIC is 0.32 µg/mL (≈ 0.712 µM).

Question: And the MIC [23]?
Answer: Its MIC is 0.63 µg/mL (≈ 1.4 µM).

Question: What about the MIC [24] of the same molecule?
Answer: Its MIC is 0.08 µg/mL (≈ 0.178 µM).

Question: And the MIC [25]?
Answer: The MIC was 0.32 µg/mL (≈ 0.712 µM).
